# According to PMC4215984, “Structure of a Diguanylate Cyclase from Thermotoga maritima: Insights into Activation, Feedback Inhibition and Thermostability” (PLoS ONE, 2014):
# Key:
# [1] = target: T1, tDGC (GGDEF domain of TM1788) (Thermotoga maritima, UniProt Q9X2A8); assay: X-ray crystallography; assay type: binding; details: feedback-inhibitory I-site (158-RxxD-161, secondary R115); co-purified ligand; inactive dimer crystals pH 6.5 (2.27 Å), active-like dimer crystals pH 4.0 (1.9 Å)
# T1 construct: gene TM_1788; GGDEF domain, residues 82-248 of 248, N-terminal His6 tag, pET28b (salt-bridge mutants in pET22b), E. coli BL21(DE3); dimer with c-di-GMP, monomer without nucleotide
# T1 sequence (Q9X2A8 entry or part of it): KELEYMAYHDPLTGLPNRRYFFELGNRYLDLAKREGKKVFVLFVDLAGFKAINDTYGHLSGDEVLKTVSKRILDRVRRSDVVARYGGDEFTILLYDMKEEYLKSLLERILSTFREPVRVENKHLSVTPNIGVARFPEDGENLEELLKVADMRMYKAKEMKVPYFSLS
# [2] = target: T1, tDGC (GGDEF domain of TM1788); assay: thermal unfolding by circular dichroism at […] nm; assay type: binding; details: 20 mM Tris-HCl pH 8.5, 250 mM NaCl, 5% glycerol, 10 mM MgCl2, 0.8 mg/ml; co-purified ligand at I-site
# RocR = target: T2, RocR (Pseudomonas aeruginosa, UniProt Q9HX69); assay: hydrolysis of tDGC-bound c-di-GMP to pGpG, gel filtration and mass spectrometry; assay type: biochemical; details: 25 mM Tris-HCl, 300 mM NaCl, 5% glycerol, 10 mM MgCl2, 2 h, room temperature
# T2 construct: recombinant RocR phosphodiesterase, expressed and purified as in cited earlier work
# T2 sequence (Q9HX69 whole entry): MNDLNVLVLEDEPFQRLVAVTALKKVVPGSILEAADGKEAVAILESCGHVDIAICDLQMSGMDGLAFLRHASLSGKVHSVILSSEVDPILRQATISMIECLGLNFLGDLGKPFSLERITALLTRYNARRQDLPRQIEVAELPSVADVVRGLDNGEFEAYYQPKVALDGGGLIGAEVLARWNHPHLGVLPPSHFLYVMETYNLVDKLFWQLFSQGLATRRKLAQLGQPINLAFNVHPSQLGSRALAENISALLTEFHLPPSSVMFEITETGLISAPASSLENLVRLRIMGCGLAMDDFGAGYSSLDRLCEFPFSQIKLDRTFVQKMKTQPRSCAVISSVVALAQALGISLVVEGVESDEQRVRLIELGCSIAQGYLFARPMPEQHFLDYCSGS
# [3] = target: T3, tDGC (GGDEF domain of TM1788) (Thermotoga maritima, UniProt Q9X2A8, R233A); assay: gel filtration; assay type: binding; details: I-site; co-purified ligand
# T3 construct: gene TM_1788; GGDEF domain, residues 82-248 of 248, N-terminal His6 tag, pET28b (salt-bridge mutants in pET22b), E. coli BL21(DE3); dimer with c-di-GMP, monomer without nucleotide
# T3 sequence (Q9X2A8 entry or part of it R233A): as the sequence (Q9X2A8 entry or part of it) above, with R152A counted along it
# [4] = target: T4, tDGC (GGDEF domain of TM1788) (Thermotoga maritima, UniProt Q9X2A8, D177A); assay: gel filtration; assay type: binding; details: I-site; co-purified ligand
# T4 construct: gene TM_1788; GGDEF domain, residues 82-248 of 248, N-terminal His6 tag, pET28b (salt-bridge mutants in pET22b), E. coli BL21(DE3); dimer with c-di-GMP, monomer without nucleotide
# T4 sequence (Q9X2A8 entry or part of it D177A): as the sequence (Q9X2A8 entry or part of it) above, with D96A counted along it
# [5] = target: T5, tDGC (GGDEF domain of TM1788) (Thermotoga maritima, UniProt Q9X2A8, E196A); assay: gel filtration; assay type: binding; details: I-site; co-purified ligand
# T5 construct: gene TM_1788; GGDEF domain, residues 82-248 of 248, N-terminal His6 tag, pET28b (salt-bridge mutants in pET22b), E. coli BL21(DE3); dimer with c-di-GMP, monomer without nucleotide
# T5 sequence (Q9X2A8 entry or part of it E196A): as the sequence (Q9X2A8 entry or part of it) above, with E115A counted along it
compound,measurement,setting,value
Nc1nc2c(ncn2[C@@H]2O[C@@H]3COP(=O)(O)O[C@H]4[C@@H](O)[C@H](n5cnc6c(=O)[nH]c(N)nc65)O[C@@H]4COP(=O)(O)O[C@H]3[C@H]2O)c(=O)[nH]1 [c-di-GMP],structure,[1],The wild type tDGC protein co-purifies with c-di-GMP and co-crystallizes without any extraneous addition of ligand
same,Tm (c-di-GMP-bound dimer; nucleotide-free monomer 85.5),[2],85.0 °C
same,"hydrolysis of tDGC-bound c-di-GMP to pGpG, gel filtration and mass spectrometry",RocR,Following incubation of the wild type tDGC bound to c-di-GMP with RocR
same,gel filtration,[3],"The three mutants eluted as dimers in gel filtration, indicating that c-di-GMP is bound"
same,gel filtration,[4],"The three mutants eluted as dimers in gel filtration, indicating that c-di-GMP is bound"
same,gel filtration,[5],"The three mutants eluted as dimers in gel filtration, indicating that c-di-GMP is bound"
